Structures can show the parent of a compound that is named as a salt. Where two headings read alike, the source gives them in different places.
Key:
[1] = Diffusivity by Pulsed Field Gradient Nuclear Magnetic Resonance; assay type: physicochemical; conditions: 37° C.
Procedure: Goserelin acetate and vitamin B12 were incorporated into cylindrical polymer matrices as described in Example 2, but using only PEGD 24000 g/mol. Goserelin acetate is a peptide having the sequence Pyr-His-Trp-Ser-Tyr-D-Ser(tBu)-Leu-Arg-Pro-Azagly-NH2 acetate salt. Its molecular weight is 1269 g/mol and it has a water solubility of 20 mg/mL at 25° C. […] The diffusivities of these two compounds was determined at 37° C. using Pulsed Field Gradient Nuclear Magnetic Resonance. The measured diffusivities were 2.8±0.1 and 2.6±0.1 (10^−6) cm^2/s for vitamin B12 and goserelin, respectively. These diffusivities are essentially the same. In vitro release experiments on these cylinders were performed as described in Example 2. […] As the diffusivities of the two compounds are very similar, and degradation of the polymer occurs slowly, release cannot be controlled by either diffusion or polymer degradation. The higher release rate must therefore be a result of the higher aqueous solubility of the goserelin acetate. Thus, release is driven by the dissolution rate of the compound in the aqueous regions of the polymer matrix.

[2] = In vitro release of goserelin acetate and vitamin B12 from ASCP 2700 / PEGD 24000 cylinders; assay type: physicochemical; conditions: 90% ASCP 2700 and 10% PEGD 24000 cylinders, loading 1 w/w %
From the text: Acrylated star-poly(ε-caprolactone-co-D,L-lactide) (ASCP) of molecular weight 2700 g/mol was co-dissolved in tetrahydrofuran with poly(ethylene glycol)diacrylate (PEGD) of molecular weight 4000 g/mol or 24000 g/mol. The total polymer concentration was 1 g/mL THF. The mass ratio of PEGD:ASCP was 1:9 (10% PEGD). In this solution was suspended vitamin B12 particles that had been ground and sieved to less than 100 μm in diameter. The total mass of vitamin B12 to polymer was 1:99 (1% vitamin B12). 1.5 w/w % of 2,2-dimethoxy-2-phenyl-acetophenone (DMPA) photoinitiator was also included. The suspension was injected into a 1.8 mm diameter glass tube to a length of 34 cm and sealed with parafilm. […] The concentration of vitamin B12 in the release samples was measured with a Spectromax microplate spectrophotometer. 0.250 mL of vitamin B12 sample per well was added into a 96 well microplate, and the absorbance of these samples was read at 381 nm. […]
Goserelin acetate and vitamin B12 were incorporated into cylindrical polymer matrices as described in Example 2, but using only PEGD 24000 g/mol. […] The diffusivities of these two compounds was determined at 37° C. using Pulsed Field Gradient Nuclear Magnetic Resonance. The measured diffusivities were 2.8±0.1 and 2.6±0.1 (10^−6) cm^2/s for vitamin B12 and goserelin, respectively. […]

[3] = cited from earlier work
[4] = Effect of cross-linking UV irradiation on vitamin B12 absorbance; assay type: physicochemical; conditions: 10 mW/cm^2 long-wave UV 5 minutes, with photo-initiator, in ethyl acetate or non-acrylated polymer solution
Procedure: As vitamin B12 absorbs within the UV region, it was important to determine whether the cross-linking conditions affected the vitamin B12. The vitamin B12 was therefore suspended in ethyl acetate in the presence of the photo-initiator, and in a non-acrylated polymer solution also containing the photo-initiator, and subjected to 10 mW/cm^2 long-wave UV irradiation for 5 minutes. The vitamin B12 was then filtered from solution, dried, and dissolved in varying concentrations and their absorbance measured and compared to that of solutions prepared from the as-received vitamin B12.

| Compound | diffusivity [1] | release rate compared with vitamin B12 (in words) [2] | water solubility ([3]; 25° C.) [mg/mL] | change in the absorbance of the vitamin B12 due to cross-linking conditions [4] | water solubility ([3]; temperature not given) [mg/mL] |
| --- | --- | --- | --- | --- | --- |
| CC(C)C[C@H](NC(=O)[C@@H](COC(C)(C)C)NC(=O)[C@H](Cc1ccc(O)cc1)NC(=O)[C@H](CO)NC(=O)[C@H](Cc1c[nH]c2ccccc12)NC(=O)[C@H](Cc1cnc[nH]1)NC(=O)[C@@H]1CCC(=O)N1)C(=O)N[C@@H](CCCNC(=N)N)C(=O)N1CCC[C@H]1C(=O)NNC(N)=O [Goserelin acetate, Pyr-His-Trp-Ser-Tyr-D-Ser(tBu)-Leu-Arg-Pro-Azagly-NH2 acetate salt] | 2.6±0.1 (10^−6) cm^2/s | appreciably faster rate | 20 | – | – |
| vitamin B12 | 2.8±0.1 (10^−6) cm^2/s | – | – | no significant change | 12.5 |

From patent US20060233857A1, “Degradable elastomeric network” (priority 2005, published 2006)
